Earlier results on one compound are cited in patent publication US11147777B1, “Methods and formulations for efficacious pain relief by transdermal delivery of cannabidiol” (CHARLOTTE'S WEB, INC., priority 2017, dated 2021).

In this data set the target is T1, mTRPM8 (Mus musculus, UniProt Q8R4D5).
T1 construct: expressed in transfected cells; host or cells: HEK293
Particulars: normalized to the efficacy of icilin, as disclosed by Behrendt et al.

T1 sequence (Q8R4D5 whole entry): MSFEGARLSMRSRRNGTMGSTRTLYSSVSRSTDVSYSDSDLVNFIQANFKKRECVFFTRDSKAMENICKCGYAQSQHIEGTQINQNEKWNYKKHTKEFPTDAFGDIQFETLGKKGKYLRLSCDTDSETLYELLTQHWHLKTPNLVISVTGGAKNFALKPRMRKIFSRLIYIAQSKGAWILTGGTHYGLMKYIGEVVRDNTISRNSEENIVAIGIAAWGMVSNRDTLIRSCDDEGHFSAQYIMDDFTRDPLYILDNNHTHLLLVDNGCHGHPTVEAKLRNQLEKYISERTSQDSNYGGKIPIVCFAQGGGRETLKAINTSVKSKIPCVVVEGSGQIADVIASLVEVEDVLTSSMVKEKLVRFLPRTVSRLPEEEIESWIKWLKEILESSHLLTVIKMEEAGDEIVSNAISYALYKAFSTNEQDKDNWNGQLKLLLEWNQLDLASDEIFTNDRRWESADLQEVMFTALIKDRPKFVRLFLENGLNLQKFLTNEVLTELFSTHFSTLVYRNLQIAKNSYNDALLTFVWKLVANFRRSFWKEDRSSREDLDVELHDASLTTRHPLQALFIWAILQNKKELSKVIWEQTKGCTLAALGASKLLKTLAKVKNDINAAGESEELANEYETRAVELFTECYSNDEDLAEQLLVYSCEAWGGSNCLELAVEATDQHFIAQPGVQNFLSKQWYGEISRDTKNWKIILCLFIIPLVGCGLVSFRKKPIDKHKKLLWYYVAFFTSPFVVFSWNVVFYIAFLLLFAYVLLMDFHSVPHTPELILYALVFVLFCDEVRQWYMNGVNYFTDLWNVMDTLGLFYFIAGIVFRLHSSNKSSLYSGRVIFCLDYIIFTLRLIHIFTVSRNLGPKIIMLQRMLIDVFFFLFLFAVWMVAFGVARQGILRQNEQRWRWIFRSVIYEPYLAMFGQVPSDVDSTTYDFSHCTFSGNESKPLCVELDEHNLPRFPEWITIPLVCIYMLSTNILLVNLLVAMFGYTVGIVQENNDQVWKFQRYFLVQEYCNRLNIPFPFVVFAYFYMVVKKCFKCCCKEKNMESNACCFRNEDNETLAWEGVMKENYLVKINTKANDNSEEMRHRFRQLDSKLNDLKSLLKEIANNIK

For `CC1CCC(C(C)C)C(O)C1` (stereo not shown) [menthol], the “relative efficacy as TRPM8 agonist on icilin-normalized scale (100 menthol = 70 icilin)” value was 70.
